Measured values taken from patent US9126941B2, “Treatment of hyperproliferative disorders with diarylhydantoin compounds” (The Regents of the University of California, priority 2005, dated 2015).
Like-named read-outs stand apart in the source and are kept apart here.

How the values were obtained:
Assay in all cases: cell-based
[1] = molecular target: T1, AR (Homo sapiens, UniProt P10275); type: cell-based; conditions: for Rank order, most active to least active, relative PSA level (FIG. 4): 500 nM; for Decrease in PSA level of LNCaP-AR cells, comparison (FIG. 4): at concentrations of 1000 nM
Description: It is well established that PSA levels are indicators of AR activities in prostate cancer. […] The LNCaP-AR cells are a line of lymph node carcinoma of prostate cells transduced with a plasmid that makes express androgen receptors. […] After four days incubation, secreted PSA levels were assayed using PSA ELISA kits (American Qualex, San Clemente, Calif.)

[2] = molecular target: T1, AR; type: cell-based; conditions: for IC50 (nM) Reporter / Inhibitory activity on AR in reporter system: LNCaP-AR; for IC50 (nM) Reporter: 100 pM R1881, two days, No = did not inhibit AR response reporter; for Inhibitory activity on AR in reporter system: hormone refractory
Description: The compounds were subjected to tests using an artificial AR response reporter system in a hormone refractory prostate cancer cell line. […] After two days of incubation, reporter activities were assayed.

[3] = molecular target: T1, AR; type: cell-based; conditions: for Agonistic activity, secreted PSA: AR over expressed LNCaP, absence of R1881; for fold induction at 0.1 µM / fold induction at 1 µM / fold induction at 10 µM: LNCaP; for fold induction at 0.1 µM: read-out: Fold induction of endogenous PSA, 0.1 μM; for fold induction at 1 µM: read-out: Fold induction of endogenous PSA, 1 μM; for fold induction at 10 µM: read-out: Fold induction of endogenous PSA, 10 μM
[4] = molecular target: T1, AR; conditions: for Agonistic activity on AR, reporter: LN-AR, absence of R1881; for fold induction at 0.1 µM: read-out: Fold induction of AR response reporter, 0.1 μM; for fold induction at 1 µM: read-out: Fold induction of AR response reporter, 1 μM; for fold induction at 10 µM: read-out: Fold induction of AR response reporter, 10 μM
Excerpt: Table 2 lists the agonistic activities of different compounds.

T1 sequence (P10275 whole entry, looked up): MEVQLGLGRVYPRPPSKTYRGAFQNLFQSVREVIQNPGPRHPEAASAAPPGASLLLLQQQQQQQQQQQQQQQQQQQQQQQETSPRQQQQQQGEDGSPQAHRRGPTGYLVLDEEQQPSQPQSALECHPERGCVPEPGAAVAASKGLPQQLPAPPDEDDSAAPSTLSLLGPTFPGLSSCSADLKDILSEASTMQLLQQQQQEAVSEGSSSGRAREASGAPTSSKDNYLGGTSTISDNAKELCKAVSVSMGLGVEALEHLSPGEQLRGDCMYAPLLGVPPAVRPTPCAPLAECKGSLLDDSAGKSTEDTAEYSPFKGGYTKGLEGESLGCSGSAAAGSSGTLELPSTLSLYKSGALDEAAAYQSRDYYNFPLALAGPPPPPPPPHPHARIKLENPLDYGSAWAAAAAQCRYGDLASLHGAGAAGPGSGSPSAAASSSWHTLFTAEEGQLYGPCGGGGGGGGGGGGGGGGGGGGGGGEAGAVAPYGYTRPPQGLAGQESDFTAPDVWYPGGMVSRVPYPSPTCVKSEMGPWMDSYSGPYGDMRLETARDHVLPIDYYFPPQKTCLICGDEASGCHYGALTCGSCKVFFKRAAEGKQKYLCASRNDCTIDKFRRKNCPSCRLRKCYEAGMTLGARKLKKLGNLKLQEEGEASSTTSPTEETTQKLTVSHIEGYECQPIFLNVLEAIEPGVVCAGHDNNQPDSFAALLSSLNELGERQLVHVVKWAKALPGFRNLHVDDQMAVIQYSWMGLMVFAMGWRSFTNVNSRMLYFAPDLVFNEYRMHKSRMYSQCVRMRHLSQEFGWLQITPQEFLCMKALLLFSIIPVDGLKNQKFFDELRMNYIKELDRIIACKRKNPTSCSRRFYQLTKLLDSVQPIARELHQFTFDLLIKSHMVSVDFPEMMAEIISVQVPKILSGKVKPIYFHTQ

Row | SMILES | IC50 [2] [nM] | Agonistic activity on AR, reporter [4] | fold induction at 0.1 µM [4] | fold induction at 1 µM [4] | fold induction at 10 µM [4] | IC50 [1] [nM] | other results
1 | N#Cc1ccc(N2C(=O)C3(CCC3)N(c3ccc(N4CCNCC4)cc3)C2=S)cc1C(F)(F)F [RD137, 4-[8-Oxo-5-(4-piperazin-1-yl-phenyl)-6-thioxo-5,7-diazaspiro[3,4]oct-7-yl]-2-trifluoromethylbenzonitrile] | 718 |  |  |  |  |  | Rank order, most active to least active, relative PSA level (FIG. 4) [1]: RD138>RD131>RD37>RD133>RD134>RD137>RD138>RD135>bicalutamide; Decrease in PSA level of LNCaP-AR cells, comparison (FIG. 4) [1]: greater decrease in PSA level than bicalutamide
2 | CN1C(=S)N(c2ccc(C#N)c(C(F)(F)F)c2)C(=O)C12CCCC2 [RD75, 4-(1-methyl-4-oxo-2-thioxo-1,3-diazaspiro[4.4]non-3-yl)-2-trifluoromethylbenzonitrile, reference compound] |  | strongly activated AR | 17 | 16.6 | 33.8 |  | IC50 (nM) PSA [1]: No; IC50 (nM) Reporter [2]: No; Inhibitory activity on AR in reporter system [2]: no inhibitory activities; Agonistic activity, secreted PSA [3]: stimulated PSA expression; fold induction at 0.1 µM [3]: 8.13; fold induction at 1 µM [3]: 18.2; fold induction at 10 µM [3]: 17.5
3 | CC1(C)C(=O)N(c2ccc(C#N)c(C(F)(F)F)c2)C(=S)N1c1ccc(C(F)(F)F)cc1 [RD66, 4-(4,4-dimethyl-5-oxo-2-thioxo-3-(4-trifluoromethylphenyl)imidazolidin-1-yl)-2-trifluoromethylbenzonitrile] | 143 |  |  |  |  | 144 | 
4 | N#Cc1ccc(N2C(=O)C3(CCCC3)NC2=S)cc1C(F)(F)F [RD77, 4-(4-oxo-2-thioxo-1,3-diazaspiro[4.4]non-3-yl)-2-trifluoromethylbenzonitrile] |  | strongly activated AR | 14.9 | 22.5 | 37.1 |  | IC50 (nM) PSA [1]: No; IC50 (nM) Reporter [2]: No; Inhibitory activity on AR in reporter system [2]: no inhibitory activities
5 | N#Cc1ccc(N2C(=O)C3(CCC3)N(c3ccc(CCCC(N)=O)cc3)C2=S)cc1C(F)(F)F [RD130, 4-{4-[7-(4-Cyano-3-trifluoromethylphenyl)-8-oxo-6-thioxo-5,7-diaza-spiro[3.4]oct-5-yl]-phenyl}-butyramide] | 112 |  |  |  |  |  | PSA level, LN/AR cell line, comparison ([1]; for a given dose / concentration): less than the PSA level upon exposure to RD128 and RD129
6 | Cc1ccc(N2C(=S)N(c3ccc(C#N)c(C(F)(F)F)c3)C(=O)C2(C)CF)cc1 (stereo not shown) [RD68, 4-(4-fluoromethyl-4-methyl-5-oxo-2-thioxo-3-(4-methylphenyl)imidazolidin-1-yl)-2-trifluoromethylbenzonitrile] | 126 |  |  |  |  | 129 | 
7 | N#Cc1ccc(N2C(=O)C3(CCC3)N(c3ccc(CCC(N)=O)cc3)C2=S)cc1C(F)(F)F [RD133, 3-{4-[7-(4-cyano-3-trifluoromethylphenyl)-8-oxo-6-thioxo-5,7-diaza-spiro[3.4]oct-5-yl]-phenyl}-propionamide] | 224 |  |  |  |  |  | Rank order, most active to least active, relative PSA level (FIG. 4) [1]: RD138>RD131>RD37>RD133>RD134>RD137>RD138>RD135>bicalutamide; Decrease in PSA level of LNCaP-AR cells, comparison (FIG. 4) [1]: greater decrease in PSA level of LNCaP-AR cells than RD135 and RD137
8 | CNC(=O)CCc1ccc(N2C(=S)N(c3ccc(C#N)c(C(F)(F)F)c3)C(=O)C23CCC3)cc1 [RD134, 3-{4-[7-(4-Cyano-3-trifluoromethylphenyl)-8-oxo-6-thioxo-5,7-diaza-spiro[3.4]oct-5-yl]-phenyl}-N-methyl-propionamide] | 234 |  |  |  |  |  | Rank order, most active to least active, relative PSA level (FIG. 4) [1]: RD138>RD131>RD37>RD133>RD134>RD137>RD138>RD135>bicalutamide; Decrease in PSA level of LNCaP-AR cells, comparison (FIG. 4) [1]: greater decrease in PSA level of LNCaP-AR cells than RD135 and RD137
9 | CN1C(=O)N(c2ccc(C#N)c(C(F)(F)F)c2)C(=O)C12CCCC2 [RD76, 4-(1-methyl-2,4-dioxo-1,3-diaza-spiro[4.4]non-3-yl)-2-trifluoromethylbenzonitrile] |  | strongly activated AR | 12 | 19.8 | 39 |  | IC50 (nM) PSA [1]: No; IC50 (nM) Reporter [2]: No; Inhibitory activity on AR in reporter system [2]: no inhibitory activities
10 | N#Cc1ccc(N2C(=O)C3(CCC3)N(c3ccc(CCC(=O)NCCO)cc3)C2=S)cc1C(F)(F)F [RD135, 3-{4-[7-(4-cyano-3-trifluoromethylphenyl)-8-oxo-6-thioxo-5,7-diaza-spiro[3.4]oct-5-yl]-phenyl}-N-(2-hydroxyethyl)-propionamide] | 732 |  |  |  |  |  | Rank order, most active to least active, relative PSA level (FIG. 4) [1]: RD138>RD131>RD37>RD133>RD134>RD137>RD138>RD135>bicalutamide; Decrease in PSA level of LNCaP-AR cells, comparison (FIG. 4) [1]: greater decrease in PSA level than bicalutamide
11 | CCNC(=S)N=C1N(c2ccc(C#N)c(C(F)(F)F)c2)C(=S)N(c2ccc(C)cc2)C1(C)C [RD91, 1-[3-(4-cyano-3-trifluoromethyl-phenyl)-5,5-dimethyl-2-thioxo-1-p-tolyl-imidazolidin-4-ylidene]-3-ethyl-thiourea] |  | no agonistic activity | 1.3 | 1.18 | 1.28 |  | Agonistic activity, secreted PSA [3]: no agonistic activities; fold induction at 0.1 µM [3]: 1.06; fold induction at 1 µM [3]: 1.3; fold induction at 10 µM [3]: 0.85
12 | Cc1ccc(N2C(=S)N(c3ccc(C#N)c(C(F)(F)F)c3)C(=O)C2(CCl)CCl)cc1 [RD67, 4-(4,4-bischloromethyl-5-oxo-2-thioxo-3-(4-methylphenyl)imidazolidin-1-yl)-2-trifluoromethylbenzonitrile] | 521 |  |  |  |  | > 500 | 
13 | CC1(C)C(=S)N(c2ccc(C#N)c(C(F)(F)F)c2)C(=S)N1c1ccc(O)cc1 [RD59, 4-[3-(4-hydroxyphenyl)-4,4-dimethyl-2,5-dithioxoazolidin-1-yl]-2-trifluoromethylbenzonitrile] | 278 |  |  |  |  | 287 | 
14 | N#Cc1ccc(N2C(=O)C3(CCC3)N(c3ccc(/C=C/CO)cc3)C2=S)cc1C(F)(F)F [RD120, 4-{5-[4-(3-hydroxypropenyl)-phenyl]-8-oxo-6-thioxo-5,7-diazaspiro[3.4]oct-7-yl}-2-trifluoromethylbenzonitrile] |  |  |  |  |  | 114 | 
15 | Cc1ccc(N2C(=S)N(c3ccc(C#N)c(C(F)(F)F)c3)C(=NC(=S)Nc3ccccc3)C23CCC3)cc1 [RD92, 1-[7-(4-cyano-3-trifluoromethyl-phenyl)-6-thioxo-5-p-tolyl-5,7-diaza-spiro[3.4]oct-8-ylidine]-3-phenyl-thiourea] |  | no agonistic activity | 1.19 | 1.41 | 1.17 |  | Agonistic activity, secreted PSA [3]: no agonistic activities; fold induction at 0.1 µM [3]: 1.31; fold induction at 1 µM [3]: 1.05; fold induction at 10 µM [3]: 0.9
16 | Cc1ccc(N2C(=S)N(c3ccc(C#N)c(C(F)(F)F)c3)C(=NC(=S)Nc3ccc(C#N)c(C(F)(F)F)c3)C23CCC3)cc1 [RD93, 1-(4-Cyano-3-trifluoromethyl-phenyl)-3-[7-(4-cyano-3-trifluoromethyl-phenyl)-6-thioxo-5-p-tolyl-5,7-diaza-spiro[3.4]oct-8-ylidene]-thiourea] |  | no agonistic activity | 1.26 | 1.1 | 1.3 |  | Agonistic activity, secreted PSA [3]: no agonistic activities; fold induction at 0.1 µM [3]: 1.44; fold induction at 1 µM [3]: 1.3; fold induction at 10 µM [3]: 1.05
17 | CS(=O)(=O)N1CCN(c2ccc(N3C(=S)N(c4ccc(C#N)c(C(F)(F)F)c4)C(=O)C34CCC4)cc2)CC1 [RD138, 4-{5-[4-(4-methanesulfonylpiperazin-1-yl)-phenyl]-8-oxo-6-thioxo-5,7-diazaspiro[3.4]oct-7-yl}-2-trifluoromethylbenzonitrile] | 138 |  |  |  |  |  | Rank order, most active to least active, relative PSA level (FIG. 4) [1]: RD138>RD131>RD37>RD133>RD134>RD137>RD138>RD135>bicalutamide; Decrease in PSA level of LNCaP-AR cells, comparison (FIG. 4) [1]: greater decrease in PSA level of LNCaP-AR cells than RD135 and RD137
18 | CC1(C)C(=O)N(c2ccc(C#N)c(C(F)(F)F)c2)C(=S)N1c1ccccc1C(=O)O [RD65, 2-[3-(4-cyano-3-trifluoromethylphenyl)-5,5-dimethyl-4-oxo-2-thioxoimidazolidin-1-yl]benzoic acid] | 523 |  |  |  |  | > 500 | 
19 | N#Cc1ccc(N2C(=O)C3(CCC3)N(c3ccc(C=O)cc3)C2=S)cc1C(F)(F)F [RD114, 4-[5-(4-formylphenyl)-8-oxo-6-thioxo-5,7-diazaspiro[3.4]oct-7-yl]-2-trifluoromethyl-benzonitrile] |  |  |  |  |  | 263 | 
20 | CC(O)c1ccc(N2C(=S)N(c3ccc(C#N)c(C(F)(F)F)c3)C(=O)C23CCC3)cc1 (stereo not shown) [RD116, 4-{5-[4-(1-hydroxyethyl)-phenyl]-8-oxo-6-thioxo-5,7-diazaspiro[3.4]oct-7-yl}-2-trifluoromethyl-benzonitrile] |  |  |  |  |  | 187 | 
